Source: PMC10599993, “The PTPN2/PTPN1 inhibitor ABBV-CLS-484 unleashes potent anti-tumour immunity” (Nature, 2023)

How the values were obtained:
Experiment in all cases: biochemical
Parameters in all cases: Kinase selectivity panel, IC50 of AC484 (Supplementary Table 1)
[1] = target: ACVR1 (Homo sapiens, UniProt Q04771)
[2] = target: ALK (Homo sapiens, UniProt Q9UM73)
[3] = target: Akt1 (Homo sapiens, UniProt P31749)
[4] = target: T1, Aurora 1 (Homo sapiens, UniProt Q96GD4)
T1 construct: gene AURKB

[5] = target: T2, Aurora 2 (Homo sapiens, UniProt O14965)
T2 construct: gene AURKA

[6] = target: CAMK1D (Homo sapiens, UniProt Q8IU85)
[7] = target: CDK8/Cyclin C (Homo sapiens, UniProt P49336)
[8] = target: T3, Ck1alpha1 (Homo sapiens, UniProt P48729)
T3 construct: gene CSNK1A1

[9] = target: Dyrk1A (Homo sapiens, UniProt Q13627)
[10] = target: T4, FAK (Homo sapiens, UniProt Q05397)
T4 construct: gene PTK2

[11] = target: Fyn (Homo sapiens, UniProt P06241)
[12] = target: GRK5 (Homo sapiens, UniProt P34947)
Chain of GRK5 (P34947 whole entry): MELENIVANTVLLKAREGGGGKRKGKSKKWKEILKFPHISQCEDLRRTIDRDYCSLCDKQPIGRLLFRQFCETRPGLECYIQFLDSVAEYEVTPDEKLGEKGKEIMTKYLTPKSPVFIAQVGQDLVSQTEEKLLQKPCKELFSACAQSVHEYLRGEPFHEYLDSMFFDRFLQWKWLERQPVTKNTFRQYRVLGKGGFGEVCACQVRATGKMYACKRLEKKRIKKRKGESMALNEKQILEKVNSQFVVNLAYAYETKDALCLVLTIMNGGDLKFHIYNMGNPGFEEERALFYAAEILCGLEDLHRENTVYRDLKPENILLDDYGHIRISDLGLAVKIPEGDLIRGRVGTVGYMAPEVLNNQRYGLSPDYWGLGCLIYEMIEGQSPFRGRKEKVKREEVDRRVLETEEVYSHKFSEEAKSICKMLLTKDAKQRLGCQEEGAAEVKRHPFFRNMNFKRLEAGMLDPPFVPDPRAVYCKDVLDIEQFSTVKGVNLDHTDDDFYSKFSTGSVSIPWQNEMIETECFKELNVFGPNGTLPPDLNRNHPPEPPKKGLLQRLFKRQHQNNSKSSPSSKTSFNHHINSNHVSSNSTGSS

[13] = target: JAK2 (Homo sapiens, UniProt O60674)
[14] = target: JAK3 (Homo sapiens, UniProt P52333)
Chain of JAK3 (P52333 whole entry): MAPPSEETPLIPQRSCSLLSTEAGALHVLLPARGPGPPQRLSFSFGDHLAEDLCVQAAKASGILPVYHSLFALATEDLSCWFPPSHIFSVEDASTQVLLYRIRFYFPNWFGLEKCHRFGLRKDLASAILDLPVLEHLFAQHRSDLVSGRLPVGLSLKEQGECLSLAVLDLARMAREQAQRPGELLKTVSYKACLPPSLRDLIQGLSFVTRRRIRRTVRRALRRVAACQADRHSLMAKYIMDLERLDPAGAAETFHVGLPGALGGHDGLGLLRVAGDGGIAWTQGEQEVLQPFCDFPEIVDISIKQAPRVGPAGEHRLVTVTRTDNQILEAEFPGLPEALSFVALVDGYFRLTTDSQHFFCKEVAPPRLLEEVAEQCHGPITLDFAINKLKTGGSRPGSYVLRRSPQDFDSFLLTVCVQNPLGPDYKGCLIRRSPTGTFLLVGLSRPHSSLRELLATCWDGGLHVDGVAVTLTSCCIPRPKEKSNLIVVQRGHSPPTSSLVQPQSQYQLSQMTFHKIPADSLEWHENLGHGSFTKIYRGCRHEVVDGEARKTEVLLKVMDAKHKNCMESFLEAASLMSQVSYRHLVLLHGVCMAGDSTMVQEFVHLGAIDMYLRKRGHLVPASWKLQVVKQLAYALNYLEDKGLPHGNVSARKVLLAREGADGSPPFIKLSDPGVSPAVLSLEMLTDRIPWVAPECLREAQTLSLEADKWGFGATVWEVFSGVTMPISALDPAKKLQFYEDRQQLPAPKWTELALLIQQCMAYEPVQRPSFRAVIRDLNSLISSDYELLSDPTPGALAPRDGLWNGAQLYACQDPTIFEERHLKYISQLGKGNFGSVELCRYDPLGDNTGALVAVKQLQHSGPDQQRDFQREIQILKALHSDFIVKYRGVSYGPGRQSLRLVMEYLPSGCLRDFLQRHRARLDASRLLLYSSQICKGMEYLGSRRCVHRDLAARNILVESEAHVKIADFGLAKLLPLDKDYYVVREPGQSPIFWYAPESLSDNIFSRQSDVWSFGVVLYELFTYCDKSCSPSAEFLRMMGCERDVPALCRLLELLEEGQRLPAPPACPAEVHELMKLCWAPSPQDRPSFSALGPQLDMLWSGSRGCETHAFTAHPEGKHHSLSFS

[15] = target: T5, LYN-B (Homo sapiens, UniProt P07948)
T5 construct: isoform B

[16] = target: MAP3K10 (Homo sapiens, UniProt Q02779)
[17] = target: MAP4K1 (Homo sapiens, UniProt Q92918)
[18] = target: MAP4K2 (Homo sapiens, UniProt Q12851)
[19] = target: MAP4K3 (Homo sapiens, UniProt Q8IVH8)
Chain of MAP4K3 (Q8IVH8 whole entry): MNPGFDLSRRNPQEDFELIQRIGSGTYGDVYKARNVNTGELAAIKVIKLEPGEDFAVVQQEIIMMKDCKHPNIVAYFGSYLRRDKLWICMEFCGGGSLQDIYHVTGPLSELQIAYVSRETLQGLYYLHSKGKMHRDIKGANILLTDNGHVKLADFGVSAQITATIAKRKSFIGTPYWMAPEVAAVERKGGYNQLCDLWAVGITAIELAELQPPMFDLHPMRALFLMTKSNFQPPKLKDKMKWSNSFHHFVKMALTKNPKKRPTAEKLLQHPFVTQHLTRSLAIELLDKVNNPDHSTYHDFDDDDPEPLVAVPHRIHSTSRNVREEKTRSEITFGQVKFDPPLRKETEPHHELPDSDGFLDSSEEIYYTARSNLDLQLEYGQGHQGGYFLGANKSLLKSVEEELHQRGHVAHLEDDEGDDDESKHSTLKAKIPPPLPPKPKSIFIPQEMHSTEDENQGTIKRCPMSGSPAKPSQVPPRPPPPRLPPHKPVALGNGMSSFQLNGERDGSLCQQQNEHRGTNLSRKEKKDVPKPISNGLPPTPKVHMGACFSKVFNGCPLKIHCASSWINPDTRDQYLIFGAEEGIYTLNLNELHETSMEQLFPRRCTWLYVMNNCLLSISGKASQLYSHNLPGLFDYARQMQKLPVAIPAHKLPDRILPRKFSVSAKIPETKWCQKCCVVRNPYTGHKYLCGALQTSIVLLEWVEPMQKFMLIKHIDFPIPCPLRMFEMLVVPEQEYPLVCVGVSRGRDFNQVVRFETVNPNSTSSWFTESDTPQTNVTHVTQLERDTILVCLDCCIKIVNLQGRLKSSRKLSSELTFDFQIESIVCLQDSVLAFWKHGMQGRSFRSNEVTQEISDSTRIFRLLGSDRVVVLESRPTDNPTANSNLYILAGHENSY

[20] = target: MAP4K4 (Homo sapiens, UniProt O95819)
[21] = target: T6, MEK1 (Homo sapiens, UniProt Q02750)
T6 construct: gene MAP2K1

[22] = target: T7, PAK4KD (Homo sapiens, UniProt O96013)
T7 construct: gene PAK4; kinase domain
T7 sequence (O96013 whole entry, the tested form may be a part): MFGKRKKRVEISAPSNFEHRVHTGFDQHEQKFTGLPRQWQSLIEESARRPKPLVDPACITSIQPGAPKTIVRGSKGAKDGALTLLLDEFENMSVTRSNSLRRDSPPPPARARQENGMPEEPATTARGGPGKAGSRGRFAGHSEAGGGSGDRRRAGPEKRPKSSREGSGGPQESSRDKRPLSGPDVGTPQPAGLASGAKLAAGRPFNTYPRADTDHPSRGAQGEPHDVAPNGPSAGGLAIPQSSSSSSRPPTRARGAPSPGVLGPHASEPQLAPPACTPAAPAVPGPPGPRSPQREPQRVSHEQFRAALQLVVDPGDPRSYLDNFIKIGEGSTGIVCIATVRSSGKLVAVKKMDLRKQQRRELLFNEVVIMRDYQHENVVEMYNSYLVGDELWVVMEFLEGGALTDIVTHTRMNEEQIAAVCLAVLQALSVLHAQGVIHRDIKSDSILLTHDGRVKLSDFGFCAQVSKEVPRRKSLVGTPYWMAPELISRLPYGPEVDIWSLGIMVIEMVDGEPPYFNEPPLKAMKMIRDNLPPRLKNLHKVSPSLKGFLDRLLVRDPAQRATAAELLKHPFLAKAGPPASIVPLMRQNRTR

[23] = target: T8, PKC alpha-UBI (Homo sapiens, UniProt P17252)
T8 construct: gene PRKCA

[24] = target: Plk3 (Homo sapiens, UniProt Q9H4B4)
Chain of Plk3 (Q9H4B4 whole entry): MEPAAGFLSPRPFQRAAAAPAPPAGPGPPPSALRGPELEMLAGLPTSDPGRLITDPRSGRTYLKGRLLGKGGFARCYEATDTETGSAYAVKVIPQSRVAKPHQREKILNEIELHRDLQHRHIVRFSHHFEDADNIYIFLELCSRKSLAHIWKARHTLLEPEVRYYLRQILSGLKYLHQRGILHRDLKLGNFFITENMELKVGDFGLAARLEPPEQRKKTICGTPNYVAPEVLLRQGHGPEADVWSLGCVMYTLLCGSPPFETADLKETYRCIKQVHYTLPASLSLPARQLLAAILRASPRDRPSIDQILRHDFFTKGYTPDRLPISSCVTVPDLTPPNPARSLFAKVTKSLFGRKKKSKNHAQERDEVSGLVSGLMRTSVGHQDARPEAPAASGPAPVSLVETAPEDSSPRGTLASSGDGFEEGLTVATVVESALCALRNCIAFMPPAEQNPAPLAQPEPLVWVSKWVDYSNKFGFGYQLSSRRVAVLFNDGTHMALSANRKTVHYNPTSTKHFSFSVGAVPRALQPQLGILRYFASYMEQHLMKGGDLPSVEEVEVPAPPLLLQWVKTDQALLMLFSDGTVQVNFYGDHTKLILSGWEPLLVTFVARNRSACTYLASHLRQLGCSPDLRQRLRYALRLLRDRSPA

[25] = target: T9, Rsk2 (Homo sapiens, UniProt P51812)
T9 construct: gene RPS6KA3

[26] = target: STK16 (Homo sapiens, UniProt O75716)
Chain of STK16 (O75716 whole entry): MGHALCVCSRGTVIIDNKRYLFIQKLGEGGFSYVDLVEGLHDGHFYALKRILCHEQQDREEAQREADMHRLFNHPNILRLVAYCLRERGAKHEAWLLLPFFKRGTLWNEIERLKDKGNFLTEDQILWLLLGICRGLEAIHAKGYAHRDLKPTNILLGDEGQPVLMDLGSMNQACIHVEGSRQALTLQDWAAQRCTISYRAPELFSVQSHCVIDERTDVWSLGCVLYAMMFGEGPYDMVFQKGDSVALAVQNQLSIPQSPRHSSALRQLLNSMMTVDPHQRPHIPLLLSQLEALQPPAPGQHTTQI

[27] = target: T10, TAK1-TAB1 (Homo sapiens, UniProt O43318)
T10 construct: gene MAP3K7

[28] = target: TEC (Homo sapiens, UniProt P42680)

Measured: IC50

CC(C)CCN[C@@H]1CCc2cc(O)c(N3CC(=O)NS3(=O)=O)c(F)c2C1 [AC484, ABBV-CLS-484]
> 10 µM: all assays above
